Experimental findings from publication PMC12748989 (Nature Communications, 2025) are described below.

One assay deals with PBMC. The settings on record: 12.5 µM.

In the case of `CC[C@H](C)[C@H](N)C(=O)N[C@@H](CC(N)=O)C(=O)N[C@@H](CC(C)C)C(=O)N[C@@H](CCCCN)C(=O)N[C@@H](C)C(=O)N[C@@H](CC(C)C)C(=O)N[C@@H](C)C(=O)N[C@@H](C)C(=O)N[C@@H](CCCNC(=N)N)C(=O)N[C@@H](C)C(=O)N[C@@H](CCCCN)C(=O)N[C@@H](CCCCN)C(=O)N[C@H](C(=O)N[C@@H](CC(C)C)C(N)=O)[C@@H](C)CC` [R9], the “Average (percentage cell inhibition), Dmastoparan MDA-MB231 12.5uM” value in the assay with MDA-MB-231 cells came out at 12.7524%. Also, in the assay with PBMC, the “Average (percentage cell inhibition), Mastoparan PBMC” value turned out to be 5.887%.
Regarding `CC[C@H](C)[C@H](N)C(=O)N[C@@H](CC(N)=O)C(=O)N[C@@H](CC(C)C)C(=O)N[C@@H](CCCCN)C(=O)N[C@@H](C)C(=O)N[C@@H](CC(C)C)C(=O)N[C@@H](C)C(=O)N[C@@H](C)C(=O)N[C@@H](CC(C)C)C(=O)N[C@@H](CCCNC(=N)N)C(=O)N[C@@H](CCCCN)C(=O)N[C@@H](CCCCN)C(=O)N[C@H](C(=O)N[C@@H](CC(C)C)C(N)=O)[C@@H](C)CC` [R10], the “Average (percentage cell inhibition), Dmastoparan MDA-MB231 12.5uM” value with MDA-MB-231 cells was found to be 11.5132%. The “Average (percentage cell inhibition), Mastoparan PBMC” value with PBMC is given as 5.821%.
For `CC[C@H](C)[C@H](N)C(=O)N[C@@H](CC(N)=O)C(=O)N[C@@H](CC(C)C)C(=O)N[C@@H](CCCCN)C(=O)N[C@@H](C)C(=O)N[C@@H](CC(C)C)C(=O)N[C@@H](C)C(=O)N[C@@H](C)C(=O)N[C@@H](CC(C)C)C(=O)N[C@@H](C)C(=O)N[C@@H](CCCNC(=N)N)C(=O)N[C@@H](CCCCN)C(=O)N[C@H](C(=O)N[C@@H](CC(C)C)C(N)=O)[C@@H](C)CC` [R11] the same measures were 37.1061% and 5.503%.
For `CC[C@H](C)[C@H](N)C(=O)N[C@@H](CC(N)=O)C(=O)N[C@@H](CC(C)C)C(=O)N[C@@H](CCCCN)C(=O)N[C@@H](C)C(=O)N[C@@H](CC(C)C)C(=O)N[C@@H](C)C(=O)N[C@@H](C)C(=O)N[C@@H](CC(C)C)C(=O)N[C@@H](C)C(=O)N[C@@H](CCCCN)C(=O)N[C@@H](CCCNC(=N)N)C(=O)N[C@H](C(=O)N[C@@H](CC(C)C)C(N)=O)[C@@H](C)CC` [R12] the same measures were 35.2659% and -4.156%.
As to `CC[C@H](C)[C@H](N)C(=O)N[C@@H](CC(N)=O)C(=O)N[C@@H](CC(C)C)C(=O)N[C@@H](CCCCN)C(=O)N[C@@H](C)C(=O)N[C@@H](CC(C)C)C(=O)N[C@@H](C)C(=O)N[C@@H](C)C(=O)N[C@@H](CC(C)C)C(=O)N[C@@H](C)C(=O)N[C@@H](CCCCN)C(=O)N[C@@H](CCCCN)C(=O)N[C@@H](CCCNC(=N)N)C(=O)N[C@@H](CC(C)C)C(N)=O` [R13], the “Average (percentage cell inhibition), Dmastoparan MDA-MB231 12.5uM” value in the assay with MDA-MB-231 cells was 13.2975%. In addition, the “Average (percentage cell inhibition), Mastoparan PBMC” value in the assay with PBMC was -5.395%.
Regarding `CC[C@H](C)[C@H](N)C(=O)N[C@@H](CC(N)=O)C(=O)N[C@@H](CC(C)C)C(=O)N[C@@H](CCCCN)C(=O)N[C@@H](C)C(=O)N[C@@H](CC(C)C)C(=O)N[C@@H](C)C(=O)N[C@@H](C)C(=O)N[C@@H](CC(C)C)C(=O)N[C@@H](C)C(=O)N[C@@H](CCCCN)C(=O)N[C@@H](CCCCN)C(=O)N[C@H](C(=O)N[C@@H](CCCNC(=N)N)C(N)=O)[C@@H](C)CC` [R14], in the assay on MDA-MB-231 cells, the “Average (percentage cell inhibition), Dmastoparan MDA-MB231 12.5uM” value is 9.085%. Further, in the assay on PBMC, the “Average (percentage cell inhibition), Mastoparan PBMC” value was -1.726%.
For `CC[C@H](C)[C@H](NC(=O)[C@H](CCCCN)NC(=O)[C@H](CCCCN)NC(=O)[C@H](C)NC(=O)[C@H](CC(C)C)NC(=O)[C@H](C)NC(=O)[C@H](C)NC(=O)[C@H](CC(C)C)NC(=O)[C@H](C)NC(=O)[C@H](CCCCN)NC(=O)[C@H](CC(C)C)NC(=O)[C@H](CC(N)=O)NC(=O)[C@@H](N)CO)C(=O)N[C@@H](CC(C)C)C(N)=O` [S1] the same measures were 31.5771% and -13.6432%.
`CC[C@H](C)[C@H](N)C(=O)N[C@@H](CO)C(=O)N[C@@H](CC(C)C)C(=O)N[C@@H](CCCCN)C(=O)N[C@@H](C)C(=O)N[C@@H](CC(C)C)C(=O)N[C@@H](C)C(=O)N[C@@H](C)C(=O)N[C@@H](CC(C)C)C(=O)N[C@@H](C)C(=O)N[C@@H](CCCCN)C(=O)N[C@@H](CCCCN)C(=O)N[C@H](C(=O)N[C@@H](CC(C)C)C(N)=O)[C@@H](C)CC` [S2]: the “Average (percentage cell inhibition), Dmastoparan MDA-MB231 12.5uM” value in the assay on MDA-MB-231 cells is given as 39.9159%. In addition, the “Average (percentage cell inhibition), Mastoparan PBMC” value in the assay with PBMC is listed as 20.6714%.
Taken in the same sequence, the figures for `CC[C@H](C)[C@H](N)C(=O)N[C@@H](CC(N)=O)C(=O)N[C@@H](CO)C(=O)N[C@@H](CCCCN)C(=O)N[C@@H](C)C(=O)N[C@@H](CC(C)C)C(=O)N[C@@H](C)C(=O)N[C@@H](C)C(=O)N[C@@H](CC(C)C)C(=O)N[C@@H](C)C(=O)N[C@@H](CCCCN)C(=O)N[C@@H](CCCCN)C(=O)N[C@H](C(=O)N[C@@H](CC(C)C)C(N)=O)[C@@H](C)CC` [S3] were 12.1099% and 5.178%.
For `CC[C@H](C)[C@H](N)C(=O)N[C@@H](CC(N)=O)C(=O)N[C@@H](CC(C)C)C(=O)N[C@@H](CO)C(=O)N[C@@H](C)C(=O)N[C@@H](CC(C)C)C(=O)N[C@@H](C)C(=O)N[C@@H](C)C(=O)N[C@@H](CC(C)C)C(=O)N[C@@H](C)C(=O)N[C@@H](CCCCN)C(=O)N[C@@H](CCCCN)C(=O)N[C@H](C(=O)N[C@@H](CC(C)C)C(N)=O)[C@@H](C)CC` [S4] the same measures were 28.0357% and 7.7%.
For `CC[C@H](C)[C@H](N)C(=O)N[C@@H](CC(N)=O)C(=O)N[C@@H](CC(C)C)C(=O)N[C@@H](CCCCN)C(=O)N[C@@H](CO)C(=O)N[C@@H](CC(C)C)C(=O)N[C@@H](C)C(=O)N[C@@H](C)C(=O)N[C@@H](CC(C)C)C(=O)N[C@@H](C)C(=O)N[C@@H](CCCCN)C(=O)N[C@@H](CCCCN)C(=O)N[C@H](C(=O)N[C@@H](CC(C)C)C(N)=O)[C@@H](C)CC` [S5] the same measures were 26.0666% and 9.929%.
Take `CC[C@H](C)[C@H](N)C(=O)N[C@@H](CC(N)=O)C(=O)N[C@@H](CC(C)C)C(=O)N[C@@H](CCCCN)C(=O)N[C@@H](C)C(=O)N[C@@H](CO)C(=O)N[C@@H](C)C(=O)N[C@@H](C)C(=O)N[C@@H](CC(C)C)C(=O)N[C@@H](C)C(=O)N[C@@H](CCCCN)C(=O)N[C@@H](CCCCN)C(=O)N[C@H](C(=O)N[C@@H](CC(C)C)C(N)=O)[C@@H](C)CC` [S6]: the “Average (percentage cell inhibition), Dmastoparan MDA-MB231 12.5uM” value in the assay on MDA-MB-231 cells was found to be 29.7699%. Moreover, in the assay on PBMC, the “Average (percentage cell inhibition), Mastoparan PBMC” value is recorded as -17.608%.
Take `CC[C@H](C)[C@H](N)C(=O)N[C@@H](CC(N)=O)C(=O)N[C@@H](CC(C)C)C(=O)N[C@@H](CCCCN)C(=O)N[C@@H](C)C(=O)N[C@@H](CC(C)C)C(=O)N[C@@H](CO)C(=O)N[C@@H](C)C(=O)N[C@@H](CC(C)C)C(=O)N[C@@H](C)C(=O)N[C@@H](CCCCN)C(=O)N[C@@H](CCCCN)C(=O)N[C@H](C(=O)N[C@@H](CC(C)C)C(N)=O)[C@@H](C)CC` [S7]: in the assay with MDA-MB-231 cells, the “Average (percentage cell inhibition), Dmastoparan MDA-MB231 12.5uM” value stood at 34.1343%. Also, in the assay with PBMC, the “Average (percentage cell inhibition), Mastoparan PBMC” value was -4.112%.
